Read-outs that look alike come from different tables or passages of the source.

These results are taken from US20240239790A1, “7-Morpholino-1,6-Naphthyridin-5-yl Derivatives and Pharmaceutical Compositions Thereof Useful as DNA-PK Inhibitor” (adMare Therapeutics Society, priority 2021, published 2024).

Series [1] concerns the target T1, DNA-PK phosphorylation at Serine 2056 (Homo sapiens, UniProt P78527).
T1 construct: FaDu cells were purchased from ATCC; host or cells: FaDu
The series is described as follows: Cellular Assay for Inhibition of DNA-PK Phosphorylation at Serine 2056 in FaDu cells (sandwich ELISA, neocarzinostatin). As to conditions: pSer2056 DNA-PK, Table 3. In kind it is cell-based. A digest of the protocol:
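pSer2056 and total DNA-PK were measured by sandwich ELISA in BCA-normalised FaDu lysates. Cells had 1 h compound exposure (0.3% DMSO), then 2 h with 1 μg/mL final neocarzinostatin. IC50 was fitted (variable slope) to % inhibition scaled against NCS-stimulated and DMSO-only controls.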

Series [2] has as its system pH2AX induction in HCT116 ATM-/- multicellular tumour spheroids. As to the kind of experiment: Prodrug Radiation Sensitization in Multicellular Tumour Spheroids, inhibition of pH2AX induction following radiation. The format is cell-based. To be noted: Homo sapiens, HCT-116, 20 Gy. In short, it runs like this:
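Endpoint: pH2AX (ser 139) or pDNA-PK (ser 2056) in cryosections fixed 1 or 2 h after 20 Gy, comparing oxygenated outer with hypoxic inner layers. Spheroids of ~0.5 mm (HCT116, FaDu; ATM-deficient cells used) held at 20% or 5% O2, 37 °C, stirred. Prodrug range 3.5 nM–10 μM.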

The subject of another series is FaDu cell line. As to the kind of experiment: Prodrug Activation in Hypoxic Stirred Tumour Cell Suspensions. As to conditions: 10 μM, 4 hours.
Setting [3] is: 5% O2, inner layers, read-out: Prodrug 5% O2 Inner layers EC50.
The mark [4] stands for this setting: 5% O2, outer layers, read-out: Prodrug 5% O2 Outer layers EC50.
[5] abbreviates: 20% O2, outer layers, read-out: Prodrug 20% O2 Outer layers EC50.

As to `CC(c1cnc([N+](=O)[O-])n1C)N(c1cnc2cc(N3CCOCC3)nc(O[C@H]3CC[C@@H](Nc4ncc(OCCN5CCN(C)CC5)cn4)CC3)c2c1)S(C)(=O)=O` (stereo partly drawn) [LFA2060, N-[1-(3-methyl-2-nitro-imidazol-4-yl)ethyl]-N-[5-[4-[[5-[2-(4-methylpiperazin-1-yl)ethoxy]pyrimidin-2-yl]amino]cyclohexoxy]-7-morpholino-1,6-naphthyridin-3-yl]methanesulfonamide], the IC50 in series [1] lay in the range of 10 to 30 µM. Also, the values for the EC50 in series [2] (setting [3]), in series [2] (setting [4]) and in series [2] (setting [5]) were 0.5 to 1 µM, 1 to 10 µM and 10 to 100 µM, respectively. For the same compound, in the series with FaDu cell line, the “Fraction of prodrug converted to active form, Hypoxic 0.2% O2” value (shortened to “Fraction … Hypoxic 0.2% O2”) is “A (A is 0.15 to 1)”. The “Fraction of prodrug converted to active form, Oxic 5% O2” value (from here on “Fraction … Oxic 5% O2”) with FaDu cell line was “D (D is 0 to 0.02)”.

In series [1], `CC(c1cnc([N+](=O)[O-])n1C)N(c1cnc2cc(N3CCOCC3)nc(O[C@H]3CC[C@@H](Nc4ncc(OCCN(C)C)cn4)CC3)c2c1)S(C)(=O)=O` (stereo partly drawn) [LFA2061, N-[5-[4-[[5-[2-(dimethylamino)ethoxy]pyrimidin-2-yl]amino]cyclohexoxy]-7-morpholino-1,6-naphthyridin-3-yl]-N-[1-(3-methyl-2-nitro-imidazol-4-yl)ethyl]methanesulfonamide] returned an IC50 of 10 to 30 µM. The concentration giving a half-maximal response (EC50) lay within 0.5 to 1 µM in series [2] (setting [3]), 1 to 10 µM in series [2] (setting [4]) and 10 to 100 µM in series [2] (setting [5]). Further, the “Fraction … Hypoxic 0.2% O2” value with FaDu cell line is given as “B (B is 0.05 to 0.15)”. For the same compound, in the series with FaDu cell line, the “Fraction … Oxic 5% O2” value is recorded as “D (D is 0 to 0.02)”.

With `CN1CCC(Oc2cnc(N[C@H]3CC[C@@H](Oc4nc(N5CCOCC5)cc5ncc(N(Cc6cnn(C)c6[N+](=O)[O-])S(C)(=O)=O)cc45)CC3)nc2)C1` (stereo partly drawn) [LFA2062, N-[(1-methyl-5-nitro-pyrazol-4-yl)methyl]-N-[5-[4-[[5-(1-methylpyrrolidin-3-yl)oxypyrimidin-2-yl]amino]cyclohexoxy]-7-morpholino-1,6-naphthyridin-3-yl]methanesulfonamide], the IC50 in series [1] fell in the range of 1 to 10 µM. The EC50 in series [2] (setting [3]) lay within 0.01 to 0.5 µM; in series [2] (setting [4]), 0.5 to 1 µM; in series [2] (setting [5]), 1 to 10 µM. Further, the “Fraction … Hypoxic 0.2% O2” value in the series on FaDu cell line is “B (B is 0.05 to 0.15)”. For the same compound, in the series on FaDu cell line, the “Fraction … Oxic 5% O2” value is given as “B (B is 0.05 to 0.15)”.

Take `CC(Oc1cnc2cc(N3CCOCC3)nc(O[C@H]3CC[C@@H](N(C)c4ncccn4)CC3)c2c1)c1cnc([N+](=O)[O-])n1C` (stereo partly drawn) [LFA2063, N-methyl-N-[4-[[3-[1-(3-methyl-2-nitro-imidazol-4-yl)ethoxy]-7-morpholino-1,6-naphthyridin-5-yl]oxy]cyclohexyl]pyrimidin-2-amine]: in series [1], the half-maximal inhibitory concentration (IC50) is 10 to 30 µM. In addition, the results for the EC50 in series [2] (setting [3]), in series [2] (setting [4]) and in series [2] (setting [5]) were 0.01 to 0.5 µM, 1 to 10 µM and 1 to 10 µM, respectively. Moreover, the “Fraction … Hypoxic 0.2% O2” value in the series with FaDu cell line is “A (A is 0.15 to 1)”. The “Fraction … Oxic 5% O2” value with FaDu cell line was “B (B is 0.05 to 0.15)”.

`CC(c1cnn(C)c1[N+](=O)[O-])N(c1cnc2cc(N3CCOCC3)nc(O[C@H]3CC[C@@H](Nc4ncc(OC5CCN(C)C5)cn4)CC3)c2c1)S(C)(=O)=O` (stereo partly drawn) [LFA2064, N-[1-(1-methyl-5-nitro-pyrazol-4-yl)ethyl]-N-[5-[4-[[5-(1-methylpyrrolidin-3-yl)oxypyrimidin-2-yl]amino]cyclohexoxy]-7-morpholino-1,6-naphthyridin-3-yl]methanesulfonamide] displayed a half-maximal inhibitory concentration (IC50) in series [1] of 1 to 10 µM. The EC50 is 0.01 to 0.5 µM in series [2] (setting [3]), 1 to 10 µM in series [2] (setting [4]) and 1 to 10 µM in series [2] (setting [5]). Moreover, the “Fraction … Hypoxic 0.2% O2” value with FaDu cell line was “B (B is 0.05 to 0.15)”. Further, the “Fraction … Oxic 5% O2” value with FaDu cell line is given as “C (C is 0.02 to 0.05)”.
